# Assay results as given in US11339171B2, “MDM2 inhibitors” (Gan & Lee Pharmaceuticals, priority 2017, dated 2022).
# pIC50: −log10 of the molar value. Where “and” joins values, the source holds several entries; their conditions need not be identical. Equal values may be shown once. Read-outs that look alike come from different tables or passages of the source.
# Key:
# [1] = Pharmacokinetics in ICR mice after intravenous and intragastric administration; format: in vivo; details: for MRT last: read-out: MRT(0-t); for MRT inf: read-out: MRT(0-∞); for Vd: read-out: Vz
# Outline: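 Male ICR mice, fasted overnight, n=3 per route, given 2 mg/kg IV or 5 mg/kg intragastric in 5% DMSO/40% PEG400/55% (10% HP-β-CD in saline). Plasma drug levels measured by LC-MS/MS after protein precipitation (LLOQ 1 ng/mL); noncompartmental AUC, t1/2, MRT, Cmax, Tmax, F, Vz, CL derived.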
# MDM2 = molecular target: T1, MDM2 (Homo sapiens, UniProt Q00987); assay: Inhibition test of MDM2-P53 (GST-MDM2, Biotin-P53, Anti-GST-Tb, SA-XL665); format: binding
# T1 construct: made in house
# Outline: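 Binding was measured by TR-FRET with GST-MDM2 at 4 nM final in PBS with 0.1% BSA, 5 mM DTT and 1 mM AEBSF. Compounds were tested as twelve-point 5-fold dilutions and incubated with the detection mix for 90 min at 25 °C with shaking before plate-reader reading and curve fitting.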
# [2] = test system: human osteosarcoma cell line SJSA-1; assay: Inhibition of proliferation of human osteosarcoma cell line SJSA-1 (DAPI staining, In Cell Analyzer); details: Homo sapiens, SJSA-1, 72 h, read-out: IC50 (nM), inhibitory activity on proliferation of human osteosarcoma cell line SJSA-1, SJSA-1, incubated 72 h
# [3] = IV 2 mg/kg, ICR mice, individual animal, 2 mg/kg
# [4] = PO 5 mg/kg, ICR mice, individual animal, 5 mg/kg
# [5] = male, ICR, mouse, plasma, iv, 2 mg/kg, IV 2 mg/kg, ICR mice, Mean
# [6] = male, ICR, mouse, plasma, iv, 2 mg/kg, IV 2 mg/kg, ICR mice, individual animal
# [7] = male, ICR, mouse, plasma, po, 5 mg/kg, PO 5 mg/kg, ICR mice, Mean
# [8] = male, ICR, mouse, plasma, po, 5 mg/kg, PO 5 mg/kg, ICR mice, individual animal
# T1 sequence (Q00987 whole entry): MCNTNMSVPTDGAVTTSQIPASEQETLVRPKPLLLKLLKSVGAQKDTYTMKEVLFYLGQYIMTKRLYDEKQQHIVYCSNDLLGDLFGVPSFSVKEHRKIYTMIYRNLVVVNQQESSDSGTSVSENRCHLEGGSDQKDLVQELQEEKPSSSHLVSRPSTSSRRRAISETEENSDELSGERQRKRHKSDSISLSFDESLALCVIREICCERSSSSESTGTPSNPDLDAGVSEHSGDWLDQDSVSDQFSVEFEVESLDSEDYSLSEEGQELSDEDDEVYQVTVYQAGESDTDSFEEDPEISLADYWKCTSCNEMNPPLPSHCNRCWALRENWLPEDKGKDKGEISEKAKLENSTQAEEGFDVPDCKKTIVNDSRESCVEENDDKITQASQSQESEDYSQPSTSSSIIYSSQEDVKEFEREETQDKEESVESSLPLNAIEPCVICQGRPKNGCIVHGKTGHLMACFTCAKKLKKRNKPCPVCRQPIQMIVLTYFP
structure (smiles),measurement,setting,value
"COc1ncc(-c2nc3c(n2C(C)C)[C@@]2(C(=O)Nc4cc(Cl)ccc42)N(c2cc(Cl)ccc2C)C3=O)c(OC)n1 [Example S-2, (S)-6-chloro-5′-(5-chloro-2-methylphenyl)-2′-(2,4-dimethoxypyrimidin-5-yl)-3′-isopropyl-3′H-spiro[dihydroindole-3,4′-pyrrolo[3,4-d]imidazole]-2,6′(5′H)-dione]",AUC(0-t),[1]; [3],1477.86 ng·h/mL and 1362.57 ng·h/mL
same,AUC(0-∞),[1]; [3],1494.93 ng·h/mL and 1392.31 ng·h/mL
same,CL,[1]; [3],22.2977 mL/min/kg and 23.941 mL/min/kg
same,Cmax,[1]; [3],456.11 ng/mL and 492.38 ng/mL
same,MRT(0-t),[1]; [3],1.51 h
same,MRT(0-∞),[1]; [3],1.54 h and 1.64 h
same,Tmax,[1]; [3],0.50 h and 1.00 h and 0.08 h
same,Vz,[1]; [3],1.80436 L/kg and 2.29183 L/kg
same,t1/2,[1]; [3],0.93 h and 1.11 h
same,F*,"[1]; PO 5 mg/kg vs IV 2 mg/kg, ICR mice",101.81%
same,AUC(0-t),[1]; [4],3883.23 ng·h/mL and 4136.52 ng·h/mL
same,AUC(0-∞),[1]; [4],4100.77 ng·h/mL and 4259.08 ng·h/mL
same,Cmax,[1]; [4],729.77 ng/mL and 804.59 ng/mL
same,MRT(0-t),[1]; [4],2.87 h and 2.76 h
same,MRT(0-∞),[1]; [4],3.28 h and 2.97 h
same,Tmax,[1]; [4],1.00 h
same,t1/2,[1]; [4],1.83 h and 1.50 h
same,AUC(0-inf),[1]; [5],1480 ng·h/mL
same,clearance,[1]; [5],22.5 mL/min/kg
same,AUC(0-t),"[1]; male, ICR, mouse, plasma, iv, 2 mg/kg, IV 2 mg/kg, ICR mice, Mean, read-out: AUC(0-t)",1460 ng·h/mL
same,Cmax,"[1]; male, ICR, mouse, plasma, iv, 2 mg/kg, IV 2 mg/kg, ICR mice, Mean, read-out: Cmax",475 ng/mL
same,MRT last,[1]; [5],1.48 h
same,MRT inf,[1]; [5],1.56 h
same,Tmax,"[1]; male, ICR, mouse, plasma, iv, 2 mg/kg, IV 2 mg/kg, ICR mice, Mean, read-out: Tmax",0.528 h
same,Vd,[1]; [5],1.88 L/kg
same,half-life,"[1]; male, ICR, mouse, plasma, iv, 2 mg/kg, IV 2 mg/kg, ICR mice, Mean, read-out: t1/2 (converted)",0.96 h
same,AUC(0-inf),[1]; [6],1560 ng·h/mL
same,clearance,[1]; [6],21.3 mL/min/kg
same,AUC(0-t),"[1]; male, ICR, mouse, plasma, iv, 2 mg/kg, IV 2 mg/kg, ICR mice, individual animal, read-out: AUC(0-t)",1550 ng·h/mL
same,Cmax,"[1]; male, ICR, mouse, plasma, iv, 2 mg/kg, IV 2 mg/kg, ICR mice, individual animal, read-out: Cmax",477 ng/mL
same,MRT last,[1]; [6],1.47 h
same,MRT inf,[1]; [6],1.51 h
same,Vd,[1]; [6],1.55 L/kg
same,half-life,"[1]; male, ICR, mouse, plasma, iv, 2 mg/kg, IV 2 mg/kg, ICR mice, individual animal, read-out: t1/2 (converted)",0.84 h
same,AUC(0-inf),[1]; [7],3870 ng·h/mL
same,AUC(0-t),"[1]; male, ICR, mouse, plasma, po, 5 mg/kg, PO 5 mg/kg, ICR mice, Mean, read-out: AUC(0-t)",3730 ng·h/mL
same,Cmax,"[1]; male, ICR, mouse, plasma, po, 5 mg/kg, PO 5 mg/kg, ICR mice, Mean, read-out: Cmax",730 ng/mL
same,MRT last,[1]; [7],2.84 h
same,MRT inf,[1]; [7],3.12 h
same,Tmax,"[1]; male, ICR, mouse, plasma, po, 5 mg/kg, PO 5 mg/kg, ICR mice, Mean, read-out: Tmax",1.67 h
same,half-life,"[1]; male, ICR, mouse, plasma, po, 5 mg/kg, PO 5 mg/kg, ICR mice, Mean, read-out: t1/2 (converted)",1.59 h
same,AUC(0-inf),[1]; [8],3250 ng·h/mL
same,AUC(0-t),"[1]; male, ICR, mouse, plasma, po, 5 mg/kg, PO 5 mg/kg, ICR mice, individual animal, read-out: AUC(0-t)",3170 ng·h/mL
same,Cmax,"[1]; male, ICR, mouse, plasma, po, 5 mg/kg, PO 5 mg/kg, ICR mice, individual animal, read-out: Cmax",656 ng/mL
same,MRT last,[1]; [8],2.89 h
same,MRT inf,[1]; [8],3.09 h
same,Tmax,"[1]; male, ICR, mouse, plasma, po, 5 mg/kg, PO 5 mg/kg, ICR mice, individual animal, read-out: Tmax",2 h
same,half-life,"[1]; male, ICR, mouse, plasma, po, 5 mg/kg, PO 5 mg/kg, ICR mice, individual animal, read-out: t1/2 (converted)",1.45 h
same,AUC(0-t),"[1]; male, ICR, mouse, plasma, po, 5 mg/kg, oral intragastric administration 5 mg/kg, read-out: AUC0-t",3730 ng·h/mL
same,half-life,"[1]; male, ICR, mouse, plasma, po, 5 mg/kg, oral intragastric administration 5 mg/kg, read-out: half-life (converted)",1.59 h
same,bioavailability,"[1]; male, ICR, mouse, plasma, oral intragastric administration 5 mg/kg, read-out: bioavailability",102%
same,pIC50,MDM2,8.95
same,IC50,[2],7.4 nM
